Laboratory results published in ChEMBL document CHEMBL5329151, “Novel pirfenidone derivatives: synthesis and biological evaluation” (2023).
Calls of active or inactive are those of the source. The rule behind the calls is not given here.

Tests used:
3T3-L1 [1] = test: Inhibition of cell growth in mouse 3T3-L1 cells after 24 to 48 hrs by MTT assay; format: functional, cell-based; settings: time 24-48 hrs
3T3-L1 [2] = test: Inhibition of cell growth in mouse 3T3-L1 cells at 0.5 to 2 mmol/L by MTT assay; format: functional, cell-based; settings: dose 0.5-2 mmol/L, time 24-48 hrs, TDE = time-dependent effect
3T3-L1 [3] = test: Inhibition of fibronectin secretion in mouse 3T3-L1 cells assessed as reduction in accumulation of fibronectin in extracellular matrix incubated for 48 hrs by ELISA (reference value: 1389.10 +/- 9.19 ng/ml); format: functional, cell-based; settings: dose 0.5-2 mmol/L
3T3-L1 [4] = test: Inhibition of cell growth in mouse 3T3-L1 cells at […] after 24 to 48 hrs by MTT assay; format: functional; settings: dose 2 mmol/L, time 24-48 hrs

| Structure (SMILES) | inhibition (3T3-L1 [1]) | inhibition (3T3-L1 [2]) | inhibition (3T3-L1 [3]) | inhibition at 2000 µM (3T3-L1 [4]) [%] |
| --- | --- | --- | --- | --- |
| Cc1ccc(=O)n(-c2ccccc2)c1 | Dose-Dependent Effect | – | – | – |
| N/N=C/c1ccc(-n2ccccc2=O)cc1 | Dose-Dependent Effect | Tde | Active | – |
| O=c1ccccn1-c1ccc(C2=NCCN2)cc1 | Dose-Dependent Effect | Tde | Active | – |
| NC(=S)N/N=C\c1ccc(-n2ccccc2=O)cc1 | Dose-Dependent Effect | Tde | Active | – |
| O=c1ccccn1-c1ccc(C2=NCCCN2)cc1 | Dose-Dependent Effect | Tde | Active | – |
| O=c1ccccn1-c1ccc(C2=NC3CCCCC3N2)cc1 (stereo not drawn) | Dose-Dependent Effect | Tde | Active | 95.4 |
| O=c1ccccn1-c1ccc(/C=N\Nc2ccccc2)cc1 | Dose-Dependent Effect | Tde | Active | – |
| NC(=O)N/N=C\c1ccc(-n2ccccc2=O)cc1 | Dose-Dependent Effect | Tde | Active | – |
